# Reference: a melting point compilation (Tetko et al.; mined from patent text by program, amines drawn as free bases though some values may be those of a salt)
row,SMILES,melting point
1,S=C(NCCc1ccccn1)NN=C(CCCCl)c1ccccc1,126 to 129 °C
2,CCS(=O)(=O)c1cc2c(c(C(=O)Cl)c1)OCCO2,146 to 147 °C
3,CCC1N=C(c2ccccc2Cl)c2cc(CC(=O)O)sc2-n2c(C)nnc21 (stereo unspecified),170 to 180 °C
4,O=c1[nH]c2cc(Cl)cc(Cl)c2c(O)c1Sc1ccccc1Cl,285 to 288 °C
5,CCCCCCCCCCCCOc1ccc(-c2ncc(-c3ccc(O)c(F)c3F)cn2)cn1,111 to 118 °C
6,Nc1ccnc(Cl)c1Br,146 °C
7,Nc1cccc(-c2ccc(CCN3CCN(C(=O)Oc4ccccc4)CC3)cc2)n1,102 to 104 °C
8,CC(=O)Nc1cccc(C(=O)CN2C=CSC2NC(C)=O)c1 (stereo unspecified),224 to 226 °C
9,COc1ccc(C(=O)c2cccc(C#N)c2)cc1,85 to 88 °C
10,CCOC(=O)C(=CN(C)C)C(=O)c1ccc(Br)cc1Cl,100 to 101 °C
11,CC(C)(C)OC(=O)NC1CCCCCC=CC2CC2(C(=O)NS(=O)(=O)C2CC2)NC(=O)C2CC(OC(=O)c3ccc4c(c3)OCCO4)CN2C1=O (stereo unspecified),199 to 201 °C
12,CC(Cc1c[nH]c2ccccc12)(NC(=O)OC1C2CC3CC(C2)CC1C3)C(=O)NC(CN=[N+]=[N-])Cc1ccccc1 (stereo unspecified),77 to 78 °C
13,CN1CC=C(c2c[nH]c3ccc(OS(=O)(=O)c4ccccc4)cc23)CC1,186 to 190 °C
14,C#CCOc1nc(Nc2cc(N)cc(C(=O)OC)c2)ncc1Br,208 to 209 °C
15,N#CCC=C1c2ccccc2C=Cc2ccccc21,95 to 101 °C
16,O=C(NC1CCCCC1)OC1CCN(C(=O)Oc2ccc(Oc3ccccc3)cc2)CC1,137 to 139 °C
17,FC(F)(F)c1[nH]c(-c2ccc(Cl)cc2)c(Br)c1C(F)(F)F,64.5 to 65 °C
18,COC(=O)NNC(=O)CC(C)(C)C,83 to 84.5 °C
19,C[Si](C)(C)C#Cc1ccc2c(c1)C(c1ccccc1)=NCc1c(C(=O)OCC(F)(F)F)ncn1-2,107 to 110 °C
20,COc1ccc2c(cccc2[C@H]2CO[C@H](CCCNC(=O)OCC(N)=O)OC2)c1,148 to 150 °C
21,CN(C)c1c(-c2ccccc2)sc2ccccc12,84 to 86 °C

row,SMILES,melting point
1,COc1cc2c(cc1OC)[C@@H]1CN(C)CC[C@@H]1N=C2c1ccc(C)c(C)c1 (relative stereo),182 to 184 °C
2,NC(=O)c1c(F)ccc(OCc2ccc3ccccc3n2)c1F,216 to 218 °C
3,CCOC(=O)c1cc2c(C)ccc(O)c2[nH]1,211 to 212 °C
4,O=c1cc(-c2ccc(O)c(Br)c2)oc2ncccc12,267 to 272 °C
5,COc1ccccc1OC(=O)CCl,60 to 61.5 °C
6,COc1ccc(N2CCOCC2)c2sc(C(=O)NCC(=O)Cc3cccs3)nc12,165 °C
7,COc1c(C)c(C)c(OC)c(CBr)c1C,71 to 72 °C
8,O=S(=O)(CC1CCCCC1)c1nc[nH]n1,172 to 175 °C
9,NC(N)=Nc1nc(-c2cccc(CNC=O)n2)cs1,192 to 193 °C
10,CC(C)c1cccc(CCC(O)CCCC2CCCCC2)c1NC(=O)CC1c2ccccc2Oc2ccccc21 (stereo unspecified),142 to 143 °C
11,CCC1(CCCCN2CCN(c3cccc(Cl)c3)CC2)C(=O)Nc2cc(F)ccc21 (stereo unspecified),116 to 117 °C
12,CCc1nc2c(c(C)c(C)n3nnnc23)n1CCOCCN1CCCS1(=O)=O,176 to 178 °C
13,C=C(CC)C(=O)c1ccc(OC2(C(=O)O)CCC2)c(Cl)c1Cl,120 °C
14,CSC(=NC(C)=O)Nc1c(Cl)cccc1Cl,137 to 140 °C
15,CCON1C(C)(C)CC(O)CC1(C)C,86 to 88 °C
16,Cn1cc(-c2cccc(-n3ncc4cc(C(C)(C)C)cc(F)c4c3=O)c2CO)cc(Nc2ccc(C(C)(C)O)cn2)c1=O,200 to 205 °C
17,Cc1ccn2ncc(C(=O)NC3CN4CCC3CC4)c2c1 (stereo unspecified),100 to 102 °C
18,COc1cccc2c1nc(-c1c(F)cccc1F)n2Cc1ccccc1,139 to 141 °C
19,COc1ccc(-c2nc(C(F)(F)F)c[nH]2)cc1OC1CCCC1,157 to 159 °C
20,CCOC(=O)CC(=O)Nc1nc(-c2ccc(OC)cc2)c(-c2cccnc2)s1,202 to 203 °C
21,COc1cc2ncc(C#N)c(Nc3ccc(O)cc3C)c2cc1OC,> 250 °C

row,SMILES,melting point
1,Nc1c(CCO)cccc1C(O)c1ccccc1 (stereo unspecified),101 °C
2,O=C(CC12CC3CC(CC(C3)C1)C2)Nc1cc(O)ccc1Cl,224 to 225 °C
3,CCOC(=O)C1=C(C)NC2=C(C(=O)OC2)C1c1ccccc1Cl (stereo unspecified),211 to 212 °C
4,Nc1ncc(-c2cccc(F)c2)nc1C(=O)Nc1cccnc1,234 to 238 °C
5,CCOC(=O)C1=C(C)N(C(C)=O)C(c2csc(C)n2)=NC1c1ccc(OC)cc1 (stereo unspecified),138 to 140 °C
6,O=C1CCC(c2ccccc2O)=NN1,211 to 212 °C
7,CC(C)n1nc(C(=CN(C)C)C(=O)c2ccc(F)cc2)ccc1=O,161 to 162 °C
8,CCOC(=O)c1c(Cl)nn(C)c1S(N)(=O)=O,121 to 123 °C
9,CCOC(=O)CCC(=O)Nc1cc(OC)c(OC)cc1C(=O)OCC,125 °C
10,CC(C)C1(C)NC(c2ncc(CO)cc2C(=O)O)=NC1=O (stereo unspecified),170 to 172 °C
11,Cc1nnc(C=O)n1-c1ccc(Cl)cc1C(=O)c1ccccc1,105 to 138 °C
12,O=C1COc2ccc(CN3CCN(c4ccccc4)CC3)cc2N1,207 to 209 °C
13,COc1ccc(F)cc1C(C)(C)CC(O)(Cc1ccc(C(=O)O)cc1)C(F)(F)F (stereo unspecified),174 to 177 °C
14,COC(=O)C(CCS(N)(=O)=O)c1ccc([N+](=O)[O-])cc1F (stereo unspecified),99 to 101 °C
15,Cc1c(CC(=O)O)c2cc(OCc3csc(-c4ccccc4)n3)ccc2n1Cc1ccccc1,150 to 151 °C
16,Cn1cccc1-c1ccc2c(c1)C1(CCCCC1)C(=O)N2,210 °C
17,Cc1cc2c(s1)SCCNC2=O,155 to 156 °C
18,CC(=O)NCc1nc2c(N)nc3ccccc3c2n1CC(C)C,214 to 218 °C
19,CC(CCCc1ccc(CCCCNC(=N)NC(=O)c2nc(Cl)c(N)nc2N)cc1)NCC(O)c1cccc(O)c1 (stereo unspecified),82 to 86 °C
20,CC1(C)CCC(=O)Nc2cc(Nc3ncc(Cl)c(Nc4ccc(N5CCOCC5)cc4OCCC#N)n3)ccc21,150 to 156 °C
21,Cc1oc(-c2ccccc2)nc1COc1ccc(CCCC#N)cc1,73 to 74 °C

# Second part, the compound after the results:
row,melting point,SMILES
1,189 to 190 °C,COc1ccc(-c2cc(-c3ccoc3)c(C(=O)NCc3ccc(C(=O)NO)cc3)[nH]2)cc1
2,143 °C,CC(=O)OC1CSC(Oc2ccc3nnn(C)c3c2)C(OC(C)=O)C1OC(C)=O (stereo unspecified)
3,181 to 183 °C,CC(C)(C)CC(C)(C)c1cc(-n2nc3ccc(-c4ccc(-c5ccccc5)cc4)cc3n2)c(O)c(C(C)(C)c2ccccc2)c1
4,62 to 63 °C,CC(C)(C)OC(=O)NCc1ccsc1CC(=O)O
5,76 to 77 °C,O=C(CC[C@H]1CC1(c1ccccc1)c1ccccc1)Oc1ccc([N+](=O)[O-])cc1
6,158 to 160 °C,COCCOCC(=O)Nc1ccnn1-c1c(Cl)cc(C(F)(F)F)cc1Cl
7,57 to 59 °C,CC(C)C1=C(Cl)C(=O)c2ccccc2C1=O
8,181 to 183 °C,FC(F)(F)c1cc(Cl)c(Oc2cc(-c3ccc(Cl)cc3)[nH]n2)c(Cl)c1
9,105 to 106 °C,CCOC(=O)c1c(O)c2ccc(Br)cc2c(=O)n1CC1CC1
10,167 °C,CC(=O)OC1CSC(Oc2cnccc2-c2ccoc2)C(OC(C)=O)C1OC(C)=O (stereo unspecified)
11,84 to 85 °C,CCc1cc(N(CC)C(=O)N2CCN(c3cc(C)cc(C)c3)CC2)c(OC)nc1C
12,206 to 208 °C,Cc1cccc(C)c1NC(=O)CCC1CCC(=O)N1 (stereo unspecified)
13,196 to 198 °C,O=C(NCC1CCOCC1)NC12CC3CC(CC(C3)C1)C2
14,213 to 215 °C,Cc1ccccc1CCCc1c(C)nc(N)nc1N
15,193 to 194 °C,CC(=O)NC[C@H]1CN(c2ccc(-n3ccnn3)c(F)c2)C(=O)O1
16,111 to 113 °C,O=C(O)CCCCCCCn1nc(-c2ccccc2)c(-c2ccccc2)nc1=O
17,154 to 155 °C,C[C@H](NC(c1ccccc1)(c1ccccc1)c1ccccc1)C(=O)O
18,79 to 80 °C,Cc1cccc(C)c1N(C)C(=O)Cl
19,239 to 241 °C,CS(=O)(=O)c1ccc(-c2cnn(CC(=O)c3ccc(C(=O)O)cc3)c(=O)c2-c2ccc(F)cc2)cc1

row,melting point,SMILES
1,240 to 242 °C,C[C@@H](Nc1ncnc2[nH]c(-c3ccc(CN4CCNCC4)cc3)cc12)c1ccccc1
2,218 °C,COc1ccc(C2CC(c3ccc(F)cc3)=NN2c2ccc(C(=O)O)cc2)cc1 (stereo unspecified)
3,119 to 122 °C,COC(=O)C(C#N)C(=O)c1snc(Cl)c1Cl (stereo unspecified)
4,139 to 141 °C,CC(C)(C)c1onc(NS(=O)(=O)c2ccccc2)c1Br
5,100 to 105 °C,CC(C)(C)OC(=O)N1CCNC[C@H]1C(c1ccccc1)c1ccccc1
6,182 to 184 °C,Cc1ccccc1C(=O)NC(NC(=O)Nc1cccnc1)C(Cl)(Cl)Cl (stereo unspecified)
7,> 250 °C,O=C1Nc2ccccc2C12COc1c2ccc2c1OCCO2 (stereo unspecified)
8,211 to 215 °C,CC(C)(C)OC(=O)NC12CCC1CN(c1c(F)cc3c(=O)c(C(=O)O)cn(C4CC4)c3c1F)C2 (stereo unspecified)
9,212 to 213 °C,O=C(O)C1CCc2c(c3ccccc3n2C(=O)c2ccc(-c3ccccc3)cc2)C1 (stereo unspecified)
10,191 to 193 °C,CCOC(=O)C1=C(C)Nc2ccnc(OC(C)C)c2C1c1ccccn1 (stereo unspecified)
11,129 to 131 °C,Cc1cc(C)cc(OC(C)(C)C(=O)O[C@H]2C[C@H](O)C=C3C=C[C@H](C)[C@H](CC[C@@H]4C[C@@H](O)CC(=O)O4)[C@H]32)c1
12,98 to 99 °C,COc1ccc(CSc2ccc([N+](=O)[O-])cc2CBr)cc1
13,280 to 282 °C,N#CC(C(=O)Nc1cccnc1)C(=O)c1nn(-c2ccccc2)c2c1COc1ccccc1-2 (stereo unspecified)
14,109 to 110 °C,O=[N+]([O-])c1cccc(-c2ccncc2)c1
15,127 to 129 °C,Cn1cc(Oc2ccc(Cl)c(Cl)c2)c(=O)c(-c2cccc(C(F)(F)F)c2)c1
16,166 °C,Cn1cc(-c2ccccc2)c(=O)c(-c2ccc(F)cc2)c1
17,164 to 165 °C,C=C(C)Cc1cc(C(=O)O)ccc1OCc1ccc(F)cc1
18,163 to 165 °C,CC(=O)CN1C(=O)c2ccc3ccccc3c2S1(=O)=O
19,47 to 48 °C,Fc1ccc(Br)c2ccsc12
